“And” between values parts separate entries of the source, which are not always exact repeats. Equal entries are not always repeated.
Legend:
Assay type in all cases: in vivo, human
[1] = Reported lithium blood levels during prophylaxis therapy; details: study patients with good adherence to lithium prophylaxis therapy
Text: To assess response to long-term lithium prophylaxis treatment in BPI disorder, we prepared a life chart with graphic depiction of lifetime clinical course for each of the BPI patients recruited before June 2012 (N=1761). This life chart included all manic, hypomanic, and depressive episodes with date of onset (year and month), duration, and severity (including the extent of functional disability, hospitalization, and the presence of psychotic features), all doses of and duration of treatment with psychotropics and mood stabilizers known have been prescribed, drug adherence recorded in medical chart for all visits at outpatient clinics, all recorded blood levels of mood stabilizers, and any adverse drug reactions. We depicted this information graphically, based on integrated information gathered from direct interview with patients and their family members, interviews with in-charge psychiatrists, and a thorough medical chart review. Based on this life chart, we determined whether individual patients had good drug adherence.
(§1) For patients in the second test of replication, we carried out regular follow-up evaluations (usually monthly and at least once every 3 months), including assay of lithium to assess drug adherence, and a SCAN interview to assess clinical condition, at outpatient clinics for at least 2 years.

[2] = system: bipolar I (BPI) disorder patients; assay: Response to long-term lithium prophylaxis treatment, Alda Scale (retrospective, life chart; GWAS and replication groups)
Text: We carried out a “discovery” GWAS, and two tests of replication. […] We genotyped each of the 1647 patients by array (see below).
To assess response to long-term lithium prophylaxis treatment in BPI disorder, we prepared a life chart with graphic depiction of lifetime clinical course for each of the BPI patients recruited before June 2012 (N=1761). […] We depicted this information graphically, based on integrated information gathered from direct interview with patients and their family members, interviews with in-charge psychiatrists, and a thorough medical chart review.
The phenotype of lithium response was assessed based on the life chart, using the Retrospective Criteria of Long-Term Treatment Response in Research Subjects with Bipolar Disorder developed by Martin Alda and Colleagues (Alda Scale). The Alda scale has two criteria. […] Criterion B (B1-B5, each rated as 0, 1 or 2 points) is used to establish whether there is a causal relationship between clinical improvement and the treatment. B1 and B2 indicate the recurrence risk off the lithium treatment [number (B1) and frequency (B2) of episodes]. B3 is a measure of the length of lithium treatment. B4 indicates compliance with lithium. B5 is a measure of concomitant psychotropic medication during periods of stability. The total score is obtained by subtracting the sum of the B scores from the A score.
In investigating a causal relationship between lithium treatment and clinical improvement of individual patients, it is important to ensure (i) comparability in clinical course between on-lithium and off-lithium periods (number, frequency and severity of episodes); (ii) satisfactory drug compliance, and (iii) the minimization of influence from additional medications (hypnotics, antidepressants, antipsychotics, and other mood stabilizers). We determined inclusion criteria accordingly, to minimize the misclassification of responders and non-responders.
See, e.g., Grof et al., J Clin Psychiatry 2002; 63:942-7; and Squassina et al, Pharmacogenomics 2011; 12:1559-69.

[3] = system: bipolar I (BPI) disorder patients; assay: Follow-up study (second test of replication) of 24 patients on lithium monotherapy, Alda Scale; parameters: key to A − B (total score of Alda Scale): Alda total = A score minus sum of B1-B5 scores (each 0-2); details: for A − B (total score of Alda Scale): individual patients, follow-up 2-5 yrs
Text: In a second test of replication, we genotyped an independent series of 24 patients who had received lithium monotherapy for at least 2 years, through May 2012. We based their inclusion on a life chart (see Phenotype Definition and Assessment below) constructed for all patients in the 1647-patient sample. Each of these 24 patients had good drug adherence to mood stabilizer(s) other than lithium prior to their commencement of lithium monotherapy but with unsatisfactory response.
The phenotype of lithium response was assessed based on the life chart, using the Retrospective Criteria of Long-Term Treatment Response in Research Subjects with Bipolar Disorder developed by Martin Alda and Colleagues (Alda Scale). The Alda scale has two criteria. Criterion A measures the extent of clinical improvement in illness activity and takes into account the frequency, duration, and severity of episodes during periods of lithium treatment considered adequate in duration and dosage, compared with the frequency, duration, and severity of episodes during periods off the lithium treatment, on a scale from 0 (no change, or exacerbation of disease severity) to 10 (complete remission). Criterion B (B1-B5, each rated as 0, 1 or 2 points) is used to establish whether there is a causal relationship between clinical improvement and the treatment. B1 and B2 indicate the recurrence risk off the lithium treatment [number (B1) and frequency (B2) of episodes]. B3 is a measure of the length of lithium treatment. B4 indicates compliance with lithium. B5 is a measure of concomitant psychotropic medication during periods of stability. The total score is obtained by subtracting the sum of the B scores from the A score.
as §1

[4] = 394 bipolar I patients under lithium prophylaxis, B5 = 2 (prolonged antidepressant and/or antipsychotic and/or mood stabilizer)

[Li] [lithium]
lithium blood levels [1]: ≥ 0.5 mM
Good response to treatment (A − B ≧ 6) ([2]; 394 bipolar I patients under lithium prophylaxis, B5 = 1 (low dose antidepressants and/or antipsychotics and/or prolonged sleep medication)): 124 (50.4) N(%)
Good response to treatment (A − B ≧ 6) [2, 4]: 5 (5.0) N(%)
Poor response to treatment (A − B < 6) [2, 4]: 96 (95.0) N(%)
Good response to treatment (A − B ≧ 6) ([2]; 394 bipolar I patients under lithium prophylaxis, additional medication B5 = 0 (none except infrequent sleep medication)): 30 (63.8) N(%)
Poor responders to treatment at cutoff 5/6 ([2]; study subjects with a B5 score of 2): 95.0%
total Alda score, range ([3]; carriers of the response alleles (N=16), good response): 8-10
A − B (total score of Alda Scale) ([3]; rs17026688 genotype CC): 3 (3×) and 2 (2×) and 0 (3×)
A − B (total score of Alda Scale) ([3]; rs17026688 genotype CT): 10 (5×) and 9 (6×) and 8
A − B (total score of Alda Scale) ([3]; rs17026688 genotype TT): 9
total Alda score, range ([3]; non-carriers (N=8), poor response): 0-3
